Patent US7528274B2, “Acylthiols and component thiol compositions as anti-HIV and anti-retroviral agents” (The United States of America as represented by the …, priority 2001, dated 2009)

Test system: HIV-2 (Rod)
Experiment: XTT cytoprotection assay, HIV-2 (Rod/CEM-SS)
Assay type: cell-based
Conditions: not given
Text: (§1) One exemplary means to determine antiviral activity is with CEM-SS cells and virus (e.g., HIV-1RF) (MOI=0.01) using the XTT {2,3-bis[2-methoxy-4-nitro-5-sulfophenyl]-5- -[(phenylamino)carbonyl]-2H-tetrazolium hydroxide} cytoprotection assay, as described by Rice (1993) Proc. Natl. Acad. Sci. USA 90: 9721-9724, and Rice (1997) Antimicrob. Agents & Chemother. […] Briefly, cells are infected with HIV-1RF (or other virus to be tested) in the presence of various dilutions of test compounds and controls. The cultures are incubated for seven days. […] The cell death is measured by XTT dye reduction. XTT is a soluble tetrazolium dye that measures mitochondrial energy output, similar to MTT. […] Individual assays are done in duplicate using a sister plate method. […] Compound numbers therein refer to the numbers used in FIG. 1.

| Structure (SMILES) | EC50 |
| --- | --- |
| Cc1cn([C@H]2C[C@H](N=[N+]=[N-])[C@@H](CO)O2)c(=O)[nH]c1=O [AZT, 3′-azido-2′, 3′-dideoxythymidine, reference compound] | 0.017 µM |
| NC(=O)C1CN1C(=O)c1ccccc1SC(=O)NC1CCCCC1 (stereo not shown) [Compound 129] | 0.104 µM |

Test system: not listed separately
Experiment: Hydrolysis assay (relative rates of hydrolysis)
Assay type: in vitro ADME
Conditions: not given
Text: (§2) One of the advantages of the compounds of the present invention over previously identified antiretroviral agents is their increased hydrolytic stability, which improves their biological activity and reduces the amount of compound that must be delivered to a treated subject to produce the desired effect. […] A PATE compound having the following structure is included: […]

| Structure (SMILES) | half-life |
| --- | --- |
| COc1ccc(C(=O)Sc2ccccc2C(=O)NCCC(N)=O)cc1OC [Compound 11] | 4.07 h |
| COc1cc(OC)cc(C(=O)Sc2ccccc2C(=O)NCCC(N)=O)c1 [Compound 12] | 7.75 h |
| Cc1ccccc1C(=O)Sc1ccccc1C(=O)NCCC(N)=O [Compound 22] | 6.8 h |
| CC(C)(C)c1ccc(C(=O)Sc2ccccc2C(=O)NCCC(N)=O)cc1 [Compound 23] | > 8.33 h |
| Cc1cccc(C(=O)NCCC(N)=O)c1SC(=O)c1ccccc1 [Compound 61] | 7.02 h |

Test system: HIV-1 144-44 (mutation L10I/M46I/I54V/L63P/A71V/V82A/L90M)
Experiment: XTT assay against drug resistant mutant HIV-1 144-44 in PBMCs
Assay type: cell-based
Conditions: HIV-1 144-44/PBMCs
Text: as §1

| Structure (SMILES) | EC50 | TI |
| --- | --- | --- |
| Cc1cn([C@H]2C[C@H](N=[N+]=[N-])[C@@H](CO)O2)c(=O)[nH]c1=O [AZT, 3′-azido-2′, 3′-dideoxythymidine, reference compound] | 1.3 µM | >153 |
| NC(=O)C1CN1C(=O)c1ccccc1SC(=O)NC1CCCCC1 (stereo not shown) [Compound 129] | 0.17 µM | >1168 |

Test system: not listed separately
Experiment: XTT assay, cytotoxicity (cellular growth inhibition) in CEM-SS cells
Assay type: cell-based
Conditions: human
Text: (§3) One exemplary means to determine antiviral activity is with CEM-SS cells and virus (e.g., HIV-1RF) (MOI=0.01) using the XTT (2,3-bis[2-methoxy-4-nitro-5-sulfophenyl]-5-[(phenylamino)carbonyl]-2H-tetrazolium hydroxide) cytoprotection assay, as described by Rice (1993) PNAS 90:9721-9724, and Rice (1997) Antimicrob. Agents Chemother. […] Briefly, cells are infected with HIV-1RF (or other virus to be tested) in the presence of various dilutions of test compounds or control compounds. The cultures are incubated for seven days. […] The cell death is measured by XTT dye reduction. XTT is a soluble tetrazolium dye that measures mitochondrial energy output, similar to MTT. […] Individual assays are done in duplicate using a sister plate method.
as §1

| Structure (SMILES) | IC50 at 7 days |
| --- | --- |
| COc1ccc(C(=O)Sc2ccccc2C(=O)NCCC(N)=O)cc1OC [Compound 11] | 165 µM |
| COc1cc(OC)cc(C(=O)Sc2ccccc2C(=O)NCCC(N)=O)c1 [Compound 12] | 102 µM |
| Cc1ccccc1C(=O)Sc1ccccc1C(=O)NCCC(N)=O [Compound 22] | 22 µM |
| CC(C)(C)c1ccc(C(=O)Sc2ccccc2C(=O)NCCC(N)=O)cc1 [Compound 23] | 107 µM |
| C[C@@H](NC(=O)c1ccccc1SC(=O)NCCBr)C(N)=O [Compound 89] | 8 µM |
| CCCNC(=O)Sc1ccccc1C(=O)N[C@H](C)C(N)=O [Compound 95] | 22.6 µM |

Test system: HIV p24
Experiment: p24 inhibition ELISA assay, HIV transgenic mouse model spleen cells
Assay type: cell-based
Conditions: Human immunodeficiency virus 1
Text: as §2

| Structure (SMILES) | EC50 |
| --- | --- |
| COc1ccc(C(=O)Sc2ccccc2C(=O)NCCC(N)=O)cc1OC [Compound 11] | 3.6 µM |
| COc1cc(OC)cc(C(=O)Sc2ccccc2C(=O)NCCC(N)=O)c1 [Compound 12] | 3.5 µM |
| Cc1ccccc1C(=O)Sc1ccccc1C(=O)NCCC(N)=O [Compound 22] | 2.6 µM |
| CC(C)(C)c1ccc(C(=O)Sc2ccccc2C(=O)NCCC(N)=O)cc1 [Compound 23] | 2.2 µM |
| Cc1cccc(C(=O)NCCC(N)=O)c1SC(=O)c1ccccc1 [Compound 61] | 15.7 µM |

Same assay, conditions: p24 inhibition ELISA, HIV transgenic mouse model spleen cells

| Structure (SMILES) | Therapeutic Index |
| --- | --- |
| COc1ccc(C(=O)Sc2ccccc2C(=O)NCCC(N)=O)cc1OC [Compound 11] | >69 |
| COc1cc(OC)cc(C(=O)Sc2ccccc2C(=O)NCCC(N)=O)c1 [Compound 12] | 39 |
| Cc1ccccc1C(=O)Sc1ccccc1C(=O)NCCC(N)=O [Compound 22] | 23 |
| CC(C)(C)c1ccc(C(=O)Sc2ccccc2C(=O)NCCC(N)=O)cc1 [Compound 23] | 56 |

Test system: PBMCs
Experiment: XTT assay, cytotoxicity, HIV-1 144-44/PBMCs section
Assay type: cell-based
Conditions: not given
Text: as §1

| Structure (SMILES) | IC50 |
| --- | --- |
| Cc1cn([C@H]2C[C@H](N=[N+]=[N-])[C@@H](CO)O2)c(=O)[nH]c1=O [AZT, 3′-azido-2′, 3′-dideoxythymidine, reference compound] | > 200 µM |
| NC(=O)C1CN1C(=O)c1ccccc1SC(=O)NC1CCCCC1 (stereo not shown) [Compound 129] | > 200 µM |

Test system: PBMCs
Experiment: XTT assay, cytotoxicity, HIV-1 (RoJo/PBMCs) section
Assay type: cell-based
Conditions: not given
Text: as §1

| Structure (SMILES) | IC50 |
| --- | --- |
| Cc1cn([C@H]2C[C@H](N=[N+]=[N-])[C@@H](CO)O2)c(=O)[nH]c1=O [AZT, 3′-azido-2′, 3′-dideoxythymidine, reference compound] | > 4 µM |
| NC(=O)C1CN1C(=O)c1ccccc1SC(=O)NC1CCCCC1 (stereo not shown) [Compound 129] | 184 µM |

Test system: HIV-1RF
Experiment: XTT cytoprotection assay, CEM-SS cells infected with HIV-1RF
Assay type: cell-based
Conditions: HIV-1RF, CEM-SS cells
Text: as §3, §1

| Structure (SMILES) | Therapeutic Index |
| --- | --- |
| COc1ccc(C(=O)Sc2ccccc2C(=O)NCCC(N)=O)cc1OC [Compound 11] | 24 |
| COc1cc(OC)cc(C(=O)Sc2ccccc2C(=O)NCCC(N)=O)c1 [Compound 12] | 13 |
| Cc1ccccc1C(=O)Sc1ccccc1C(=O)NCCC(N)=O [Compound 22] | 2.3 |
| CC(C)(C)c1ccc(C(=O)Sc2ccccc2C(=O)NCCC(N)=O)cc1 [Compound 23] | 24 |
| C[C@@H](NC(=O)c1ccccc1SC(=O)NCCBr)C(N)=O [Compound 89] | 8.7 |
| CCCNC(=O)Sc1ccccc1C(=O)N[C@H](C)C(N)=O [Compound 95] | 27 |

Same assay, conditions: Human immunodeficiency virus 1, 168 h, read-out: EC50 (50% cytoprotection); HIV-1RF, CEM-SS cells, seven days, XTT

| Structure (SMILES) | EC50 |
| --- | --- |
| COc1ccc(C(=O)Sc2ccccc2C(=O)NCCC(N)=O)cc1OC [Compound 11] | 6.9 µM |
| COc1cc(OC)cc(C(=O)Sc2ccccc2C(=O)NCCC(N)=O)c1 [Compound 12] | 8.1 µM |
| Cc1ccccc1C(=O)Sc1ccccc1C(=O)NCCC(N)=O [Compound 22] | 9.7 µM |
| CC(C)(C)c1ccc(C(=O)Sc2ccccc2C(=O)NCCC(N)=O)cc1 [Compound 23] | 4.5 µM |
| CCCNC(=O)Sc1ccccc1C(=O)N[C@H](C)C(N)=O [Compound 95] | 0.85 µM |

Same assay, conditions: Human immunodeficiency virus 1, CEM-SS, 168 h, read-out: EC50 (50% cytoprotection)

| Structure (SMILES) | EC50 |
| --- | --- |
| C[C@@H](NC(=O)c1ccccc1SC(=O)NCCBr)C(N)=O [Compound 89] | 0.92 µM |

Same assay, conditions: read-out: EC50 (50% cytoprotection); HIV-1RF, CEM-SS cells, seven days, XTT

| Structure (SMILES) | EC50 |
| --- | --- |
| NC(=O)C1CN1C(=O)c1ccccc1SC(=O)NC1CCCCC1 (stereo not shown) [Compound 129] | 0.55 µM |

Test system: HIV-1 (RoJo)
Experiment: not given
Assay type: cell-based
Conditions: HIV-1 (RoJo/PBMCs)
Text: as §1

| Structure (SMILES) | EC50 |
| --- | --- |
| Cc1cn([C@H]2C[C@H](N=[N+]=[N-])[C@@H](CO)O2)c(=O)[nH]c1=O [AZT, 3′-azido-2′, 3′-dideoxythymidine, reference compound] | 0.01 µM |
| NC(=O)C1CN1C(=O)c1ccccc1SC(=O)NC1CCCCC1 (stereo not shown) [Compound 129] | 3.8 µM |

Test system: cells
Experiment: XTT assay, cytotoxicity, SIV (Mac 251) section
Assay type: cell-based
Conditions: not given
Text: as §1

| Structure (SMILES) | IC50 |
| --- | --- |
| Cc1cn([C@H]2C[C@H](N=[N+]=[N-])[C@@H](CO)O2)c(=O)[nH]c1=O [AZT, 3′-azido-2′, 3′-dideoxythymidine, reference compound] | > 1 µM |
| NC(=O)C1CN1C(=O)c1ccccc1SC(=O)NC1CCCCC1 (stereo not shown) [Compound 129] | 21.8 µM |

Test system: HIV-1 1026040 (mutation V32I/M46I/L63P/L90M)
Experiment: XTT assay against drug resistant mutant HIV-1 1026040
Assay type: cell-based
Conditions: not given
Text: as §1

| Structure (SMILES) | EC50 | TI |
| --- | --- | --- |
| Cc1cn([C@H]2C[C@H](N=[N+]=[N-])[C@@H](CO)O2)c(=O)[nH]c1=O [AZT, 3′-azido-2′, 3′-dideoxythymidine, reference compound] | 0.006 µM | >167 |
| NC(=O)C1CN1C(=O)c1ccccc1SC(=O)NC1CCCCC1 (stereo not shown) [Compound 129] | 4 µM | >51 |

Test system: cells
Experiment: XTT assay, cytotoxicity, HIV-1 1026040 section
Assay type: cell-based
Conditions: not given
Text: as §1

| Structure (SMILES) | IC50 |
| --- | --- |
| Cc1cn([C@H]2C[C@H](N=[N+]=[N-])[C@@H](CO)O2)c(=O)[nH]c1=O [AZT, 3′-azido-2′, 3′-dideoxythymidine, reference compound] | > 1 µM |
| NC(=O)C1CN1C(=O)c1ccccc1SC(=O)NC1CCCCC1 (stereo not shown) [Compound 129] | > 200 µM |

Test system: SIV (Mac 251)
Experiment: XTT cytoprotection assay, SIV (Mac 251)
Assay type: cell-based
Conditions: not given
Text: as §1

| Structure (SMILES) | EC50 |
| --- | --- |
| Cc1cn([C@H]2C[C@H](N=[N+]=[N-])[C@@H](CO)O2)c(=O)[nH]c1=O [AZT, 3′-azido-2′, 3′-dideoxythymidine, reference compound] | 0.02 µM |
| NC(=O)C1CN1C(=O)c1ccccc1SC(=O)NC1CCCCC1 (stereo not shown) [Compound 129] | 0.29 µM |

Test system: HIV transgenic mouse model spleen cells
Experiment: Cytotoxicity, HIV transgenic mouse model spleen cells
Assay type: cell-based
Conditions: not given
Text: as §2

| Structure (SMILES) | IC50 |
| --- | --- |
| COc1ccc(C(=O)Sc2ccccc2C(=O)NCCC(N)=O)cc1OC [Compound 11] | > 250 µM |
| COc1cc(OC)cc(C(=O)Sc2ccccc2C(=O)NCCC(N)=O)c1 [Compound 12] | 136 µM |
| Cc1ccccc1C(=O)Sc1ccccc1C(=O)NCCC(N)=O [Compound 22] | 59 µM |
| CC(C)(C)c1ccc(C(=O)Sc2ccccc2C(=O)NCCC(N)=O)cc1 [Compound 23] | 123 µM |

Test system: CEM-SS
Experiment: XTT assay, cytotoxicity, HIV-2 (Rod/CEM-SS) section
Assay type: cell-based
Conditions: not given
Text: as §1

| Structure (SMILES) | IC50 |
| --- | --- |
| Cc1cn([C@H]2C[C@H](N=[N+]=[N-])[C@@H](CO)O2)c(=O)[nH]c1=O [AZT, 3′-azido-2′, 3′-dideoxythymidine, reference compound] | > 1 µM |
| NC(=O)C1CN1C(=O)c1ccccc1SC(=O)NC1CCCCC1 (stereo not shown) [Compound 129] | 6.54 µM |
